This note sets out measurements from ChEMBL document CHEMBL2146412, “Antibacterial spirobisnaphthalenes from the North American cup fungus Urnula craterium” (J Nat Prod, 2012).

For one assay, the system named is J774.A1. Kind of assay: Cytotoxicity against mouse J774A1 cells by trypan blue exclusion assay. It counts as cell-based.
The test system of another assay is Enterococcus faecium. As to the kind of experiment: Antibacterial activity against vancomycin-resistant Enterococcus faecium VRE1. It counts as functional.
For assay [1], the system named is Staphylococcus aureus. As to the kind of experiment: Antibacterial activity against methicillin-resistant Staphylococcus aureus MW2. It counts as functional.
A further assay relates to Streptococcus pyogenes. As to the kind of experiment: Antibacterial activity against Streptococcus pyogenes UWL. It counts as functional.
The subject of assay [2] is Staphylococcus aureus. Kind of assay: Antibacterial activity against Staphylococcus aureus ATCC 29213. It counts as functional.
In the next assay the test system is Enterococcus faecalis. Kind of assay: Antibacterial activity against Enterococcus faecalis ATCC 29212. It counts as functional.
The test system of another assay is Escherichia coli. As to the kind of experiment: Antibacterial activity against Escherichia coli. It counts as functional, organism-based.
In another assay the test system is Pseudomonas aeruginosa. Kind of assay: Antibacterial activity against Pseudomonas aeruginosa. It counts as functional, organism-based.

≈ marks a conversion by molar mass, not a printed value. Calls of active or inactive are those of the source. No cut-off for these calls is given here.

Take `COc1ccc(C[C@H](N)C(=O)N[C@H]2[C@@H](O)[C@H](n3cnc4c(N(C)C)ncnc43)O[C@@H]2CO)cc1` [PUROMYCIN]: in the assay on J774.A1, the midpoint of inhibition, the IC50, lay at 10 µM.
As for `CN(C)[C@@H]1C(O)=C(C(N)=O)C(=O)[C@@]2(O)C(O)=C3C(=O)c4c(O)cccc4[C@@](C)(O)[C@H]3C[C@@H]12` [TETRACYCLINE], the MIC (usually the lowest concentration found to suppress growth) came to 4 mg/L (≈ 9 µM) in the assay with Enterococcus faecium; 0.125 mg/L (≈ 0.281 µM) against Staphylococcus aureus [1]; 0.125 mg/L (≈ 0.281 µM) with Streptococcus pyogenes; 0.25 mg/L (≈ 0.563 µM) in the assay with Staphylococcus aureus [2]; 16 mg/L (≈ 36 µM) against Enterococcus faecalis.
Take `O=C1C=C[C@]2(O[C@@H]3c4c2ccc(O)c4C(=O)[C@@H]2O[C@H]32)c2cccc(O)c21` [URNUCRATIN A]: the outcome in the assay with Escherichia coli and in the assay with Pseudomonas aeruginosa was inactive. Besides, the IC50 – broadly, the midpoint of a concentration-inhibition curve – in the assay with J774.A1 is over 100 µM. Also, the MIC against Enterococcus faecium was determined as 1 mg/L (≈ 2.87 µM); in the assay on Staphylococcus aureus [1] it was 2 mg/L (≈ 5.74 µM); against Streptococcus pyogenes it was 0.5 mg/L (≈ 1.44 µM); with Staphylococcus aureus [2], 2 mg/L (≈ 5.74 µM); with Enterococcus faecalis, 0.5 mg/L (≈ 1.44 µM).
Turning to `COc1cccc2c1C(=O)C=C[C@]21O[C@@H]2c3c1ccc(O)c3C(=O)[C@@H]1O[C@H]21` [URNUCRATIN B], the outcome in the assay on Escherichia coli and in the assay with Pseudomonas aeruginosa was inactive. The molecule further displayed an IC50 in the assay with J774.A1 of over 100 µM. Also, the minimal inhibitory concentration (MIC) with Enterococcus faecium came to 8 mg/L (≈ 22.1 µM); against Staphylococcus aureus [1] it was 8 mg/L (≈ 22.1 µM); in the assay with Streptococcus pyogenes it was 4 mg/L (≈ 11 µM); against Staphylococcus aureus [2], 8 mg/L (≈ 22.1 µM); against Enterococcus faecalis, 8 mg/L (≈ 22.1 µM).
Consider `COc1cccc2c1C(=O)C=C[C@]21O[C@@H]2c3c1ccc(O)c3[C@H](O)[C@@H]1O[C@@H]12` [URNUCRATIN C], for which the outcome in the assay with Escherichia coli and in the assay with Pseudomonas aeruginosa was inactive. Besides, the IC50 with J774.A1 is over 100 µM. The MIC in the assay on Enterococcus faecium, against Staphylococcus aureus [1], against Streptococcus pyogenes, in the assay on Staphylococcus aureus [2] and against Enterococcus faecalis was 64 mg/L (≈ 176 µM) throughout.
Take `CN[C@H](CC(C)C)C(=O)N[C@H]1C(=O)N[C@@H](CC(N)=O)C(=O)N[C@H]2C(=O)N[C@H]3C(=O)N[C@H](C(=O)N[C@H](C(=O)O)c4cc(O)cc(O)c4-c4cc3ccc4O)[C@H](O)c3ccc(c(Cl)c3)Oc3cc2cc(c3O[C@@H]2O[C@H](CO)[C@@H](O)[C@H](O)[C@H]2O[C@H]2C[C@](C)(N)[C@H](O)[C@H](C)O2)Oc2ccc(cc2Cl)[C@H]1O` [VANCOMYCIN]: the MIC turned out to be 64 mg/L (≈ 44.2 µM) against Enterococcus faecium, 1 mg/L (≈ 0.69 µM) in the assay with Streptococcus pyogenes and 2 mg/L (≈ 1.38 µM) in the assay with Enterococcus faecalis.
